According to the supplement of paper PMC10307832:

Experiments:
Assay in all cases: relative viability (nuclei count vs DMSO), 5 days (fraction); higher = more cells survive
[1] = compound: COc1cc2ncn(-c3cc(OCc4ccccc4C(F)(F)F)c(C(N)=O)s3)c2cc1OC + CCNC(=O)c1noc(-c2cc(C(C)C)c(O)cc2O)c1-c1ccc(CN2CCOCC2)cc1 [Luminespib] (partner 0.01 µM)
Outline: (§1)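 For relative viability, nuclei counts in treated wells were divided by those in vehicle wells. Lung cancer cell lines had been pin-tool dosed in 1536-well plates the day after seeding and cultured for 5 days, then fixed and stained in one step (final 0.05% Triton X-100, 1% formaldehyde, 1 ug/ml Hoechst) and imaged at 4×. Doses were one drug alone or a fixed anchor-drug dose plus five library-drug doses (not always all listed) in √10 steps, and values are duplicate-plate medians.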

[2] = compound: COc1cc2ncn(-c3cc(OCc4ccccc4C(F)(F)F)c(C(N)=O)s3)c2cc1OC + COc1cc2c(Oc3ccc(NC(=O)C4(C(=O)Nc5ccc(F)cc5)CC4)cc3F)ccnc2cc1OCCCN1CCOCC1 [Foretinib] (partner 0.25 µM)
Outline: as §1

[3] = compound: COc1cc2ncn(-c3cc(OCc4ccccc4C(F)(F)F)c(C(N)=O)s3)c2cc1OC + Cc1nc(Nc2ncc(C(=O)Nc3c(C)cccc3Cl)s2)cc(N2CCN(CCO)CC2)n1 [Dasatinib] (partner 0.075 µM)
Outline: as §1

[4] = compound: COc1cc2ncn(-c3cc(OCc4ccccc4C(F)(F)F)c(C(N)=O)s3)c2cc1OC + Nc1ncn([C@H]2C[C@H](O)[C@@H](CO)O2)c(=O)n1 [Decitabine] (partner 2 µM)
Outline: as §1

Cell Line | relative viability ([1]; first compound 0.05 µM) | relative viability ([1]; first compound 0.1581 µM) | relative viability ([1]; first compound 0.5 µM) | relative viability ([1]; first compound 1.581 µM) | relative viability ([1]; first compound 5 µM) | relative viability ([2]; first compound 0.05 µM) | relative viability ([2]; first compound 0.1581 µM) | relative viability ([2]; first compound 0.5 µM) | relative viability ([2]; first compound 1.581 µM) | relative viability ([2]; first compound 5 µM) | relative viability ([3]; first compound 0.05 µM) | relative viability ([3]; first compound 0.1581 µM) | relative viability ([3]; first compound 0.5 µM) | relative viability ([3]; first compound 1.581 µM) | relative viability ([3]; first compound 5 µM) | relative viability ([4]; first compound 0.05 µM) | relative viability ([4]; first compound 0.1581 µM) | relative viability ([4]; first compound 0.5 µM) | relative viability ([4]; first compound 1.581 µM) | relative viability ([4]; first compound 5 µM)
HCC-827 | 0.335 | 0.683 | 0.372 | 0.194 | 0.161 | 1.04 | 0.987 | 0.718 | 0.277 | 0.213 | 0.321 | 0.359 | 0.222 | 0.293 | 0.292 | 0.344 | 0.346 | 0.328 | 0.234 | 0.28
HOP-62 | 0.966 | 0.638 | 0.708 | 0.176 | 0.123 | 1.16 | 1 | 1.03 | 0.295 | 0.139 | 0.653 | 0.694 | 0.597 | 0.15 | 0.114 | 0.227 | 0.266 | 0.237 | 0.186 | 0.141
IA-LM | – | – | – | – | – | 1.16 | 0.987 | 0.328 | 0.0521 | 0.0505 | – | – | – | – | – | – | – | – | – | –
LC-2-ad | 0.759 | 0.857 | 0.515 | 0.293 | 0.29 | 0.916 | 0.946 | 0.506 | 0.286 | 0.303 | 0.639 | 0.594 | 0.201 | 0.123 | 0.133 | 0.824 | 0.761 | 0.63 | 0.203 | 0.2
LCLC-97TM1 | 0.757 | 0.719 | 0.415 | 0.167 | 0.197 | 0.914 | 0.896 | 0.646 | 0.184 | 0.147 | 0.743 | 0.74 | 0.761 | 0.214 | 0.128 | 0.246 | 0.238 | 0.196 | 0.139 | 0.114
LCLC-103H | 0.771 | 0.927 | 0.594 | 0.273 | 0.151 | 0.646 | 0.831 | 0.537 | 0.199 | 0.131 | 0.466 | 0.522 | 0.341 | 0.176 | 0.175 | 0.729 | 0.785 | 0.657 | 0.355 | 0.257
LK-2 | 0.194 | 0.204 | 0.157 | 0.152 | 0.173 | 1.27 | 0.987 | 0.266 | 0.163 | 0.135 | 0.282 | 0.369 | 0.262 | 0.154 | 0.151 | 0.271 | 0.236 | 0.133 | 0.131 | 0.0977
LOU-NH91 | 0.358 | 0.385 | 0.308 | 0.278 | 0.301 | 0.933 | 0.978 | 0.754 | 0.423 | 0.713 | 0.6 | 0.599 | 0.459 | 0.31 | 0.387 | 0.841 | 0.84 | 0.761 | 0.513 | 0.344
LU99A | 0.225 | 0.304 | 0.207 | 0.172 | 0.203 | 0.564 | 0.87 | 0.572 | 0.302 | 0.216 | 0.493 | 0.548 | 0.256 | 0.182 | 0.135 | 0.767 | 0.825 | 0.604 | 0.194 | 0.191
LXF-289 | 0.42 | 0.483 | 0.259 | 0.0958 | 0.0607 | 0.92 | 0.858 | 0.483 | 0.158 | 0.0736 | 0.225 | 0.206 | 0.124 | 0.037 | 0.0349 | 0.434 | 0.363 | 0.274 | 0.129 | 0.108
NCI-H23 | 0.211 | 0.209 | 0.213 | 0.206 | 0.22 | 1.02 | 0.759 | 0.564 | 0.123 | 0.138 | 0.801 | 0.636 | 0.426 | 0.11 | 0.0948 | 0.296 | 0.281 | 0.176 | 0.191 | 0.151
NCI-H322M | 0.837 | 1.1 | 0.759 | 0.315 | 0.288 | 0.956 | 1.16 | 0.857 | 0.499 | 0.406 | 0.233 | 0.263 | 0.268 | 0.27 | 0.308 | 0.676 | 0.73 | 0.581 | 0.446 | 0.415
NCI-H358 | 0.26 | 0.378 | 0.29 | 0.102 | 0.13 | 0.724 | 0.71 | 0.484 | 0.0999 | 0.0726 | 0.151 | 0.195 | 0.185 | 0.0783 | 0.0726 | 0.228 | 0.179 | 0.219 | 0.115 | 0.138
NCI-H522 | 1.1 | 0.899 | 1.16 | 0.787 | 0.737 | – | – | – | – | – | 0.937 | 0.846 | 0.814 | 0.628 | 0.369 | 0.574 | 0.628 | 0.54 | 0.618 | 0.36
NCI-H1299 | – | – | – | – | – | 1.1 | 1.07 | 0.664 | 0.255 | 0.257 | – | – | – | – | – | – | – | – | – | –
NCI-H1563 | 0.587 | 0.501 | 0.513 | 0.474 | 0.4 | 0.839 | 0.897 | 1.28 | 0.767 | 0.567 | 0.51 | 0.506 | 0.454 | 0.44 | 0.349 | – | – | – | – | –
NCI-H1648 | – | – | – | – | – | – | – | – | – | – | – | – | – | – | – | 0.473 | 0.602 | 0.345 | 0.235 | 0.225
NCI-H1703 | – | – | – | – | – | 0.308 | – | 0.303 | – | 0.15 | – | – | – | – | – | – | – | – | – | –
NCI-H1792 | 0.509 | 0.397 | 0.339 | 0.208 | 0.185 | – | – | – | – | – | 0.786 | 0.757 | 0.372 | 0.287 | 0.25 | 0.503 | 0.65 | 0.411 | 0.0575 | 0.0384
NCI-H2228 | 0.114 | 0.159 | 0.147 | 0.139 | 0.126 | 0.85 | 0.739 | 0.351 | 0.1 | 0.162 | 0.381 | 0.472 | 0.176 | 0.132 | 0.181 | – | – | – | – | –
